The text below walks through data of patent US11661398B2, “Cellular transport system for transferring a sulfonic acid construct carrying a cargo into the cytoplasm of a cell” (Scientist of Fortune, S.A., priority 2017, dated 2023).

Broadly, the Km is the substrate concentration at which the rate is half of its maximum. As usually defined, the Vmax is the rate approached at saturating substrate. One may read the kcat as the maximal rate divided by the concentration of active sites.

Peptide text beside a SMILES is read from it.

For one assay, the system named is TK054. As to the kind of experiment: Leucine auxotrophy complementation with peptide vector. The format is cell-based, E. coli. To be noted: 1 mM peptide, plasmid pACT3/6×His_PnGGT ΔN24, 0.5 mM IPTG, 37° C., 5 days or more. Here is the method:
(§1) LB Miller broth (Becton Dickinson, Sparks, Md., USA) was used as standard growth medium for bacterial cultures (Sambrook, 2001). For the preparation of competent cells, SOB medium was used (Hanahan, 1983). Unless stated otherwise, growth experiments in selective medium were carried out in M9 minimal medium (Sambrook, 2001) supplemented with 0.5% glucose, 1 μg mL^−1 thiamine, 0.5 mM IPTG and 1 mM alanyl-γ-glutamyl-leucine (>95% purity, custom synthesized by Pepscan, Lelystad, Netherlands). For growth experiments on solid medium Bacto Agar (Becton Dickinson) was added to a final concentration of 1.5%. Growth experiments in liquid medium were performed either in a Tecan Infinite 200 Pro plate reader (Tecan, Mannedorf, Switzerland) or in a Biolector Basic Microbiorector System (m2p-labs, Baesweiler, Germany). All growth experiments were performed at 37° C. […]
The possibility to express 6×His_PnGGT ΔN24 in the cytoplasm of E. coli and the enzyme's relaxed substrate specificity (Imaoka et al., 2010) opened up the possibility to selectively hydrolyze γ-glutamyl compounds within the cytoplasm. […] As a cargo, leucine was chosen, whose successful release could be easily detected by restoring growth to a leucine auxotrophic strain. […]

A further assay concerns TK054 ΔpcnB. The description is as above. The format is cell-based, E. coli. To be noted: 1 mM peptide, 6×His_PnGGT ΔN24 expressed, IPTG present. Here is the method: as §1
To verify that the beneficial effects to growth with Ala-γ-Glu-Leu were caused by activity reducing mutations in pcnB, the entire gene was removed from the unmutated leucine auxotrophic selection strain, resulting in strain TK054 ΔpcnB. On M9 minimal medium containing 0.5% glucose and 1 mM Ala-γ-Glu-Leu as the only source of leucine, no growth of this strain was detected if the inducer IPTG was omitted (FIG. 6a). […]

The target of assay [1] is T1, PnGGT ΔN24 (Pseudomonas nitroreducens, UniProt E0D5C2). As to the kind of experiment: Kinetic measurements with purified PnGGT ΔN24. The format is biochemical. To be noted: purified enzyme, 50 mM Tris-HCl (pH 9.0). The procedure: (§2) For the experiments relating to the sulfonate based synthetic transport system, purification of PnGGT ΔN24 and PnGGT ΔN24 D405N containing an N-terminal 6×His-tag was performed according to previous reports (Van Dyke et al., 1992) using Ni-NTA Superflow (Qiagen, Hilden, Germany). For kinetic studies, PnGGT variants were purified with the aid of the 6×His-tag located at the N-terminal end of the large subunit following the same procedure. To exchange the buffer, purified proteins were dialyzed against 50 mM Tris/HCl (pH 7.0).
(§3) To determine the kinetic parameters of PnGGT ΔN24 and PnGGT ΔN24 D405N the purified enzymes were preincubated in 50 mM Tris-HCl (pH 9.0). To start the reaction, varying concentrations of the substrates L-glutamic acid γ-(3-carboxy-4-nitroanilide) or sulfobutanoyl-p-nitroanilide were added to the mixtures. The results were evaluated using GraphPad Prism (GraphPad Software, La Jolla, Calif., USA).

In assay [2] the target is T2, PnGGT ΔN24 D405N (Pseudomonas nitroreducens, UniProt E0D5C2, D405N).
T2 sequence (E0D5C2 with tags, fused parts or gaps D405N): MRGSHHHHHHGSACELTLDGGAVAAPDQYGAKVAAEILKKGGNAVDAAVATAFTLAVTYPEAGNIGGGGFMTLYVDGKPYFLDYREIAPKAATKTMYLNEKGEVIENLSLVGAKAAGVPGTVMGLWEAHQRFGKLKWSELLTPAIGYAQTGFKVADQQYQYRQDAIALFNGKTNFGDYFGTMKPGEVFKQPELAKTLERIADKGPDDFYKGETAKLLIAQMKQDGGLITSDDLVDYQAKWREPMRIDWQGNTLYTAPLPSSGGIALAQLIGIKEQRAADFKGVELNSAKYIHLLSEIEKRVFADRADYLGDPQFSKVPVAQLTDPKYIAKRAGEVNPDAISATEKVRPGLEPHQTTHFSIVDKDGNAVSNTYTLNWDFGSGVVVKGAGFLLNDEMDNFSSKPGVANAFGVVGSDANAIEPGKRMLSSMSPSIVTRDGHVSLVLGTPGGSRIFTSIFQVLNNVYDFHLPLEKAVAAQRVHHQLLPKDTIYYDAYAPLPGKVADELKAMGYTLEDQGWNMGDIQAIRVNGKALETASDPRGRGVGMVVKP
Put plainly: Kinetic measurements with purified PnGGT ΔN24 D405N. The format is biochemical. To be noted: purified enzyme, 50 mM Tris-HCl (pH 9.0). Here is the method: as §2, §3

The target of a further assay is T3, EcGGT ΔN24 (Escherichia coli, UniProt P18956).
T3 construct: made in house; host or cells: E. coli (pACT3 plasmid, IPTG induction)
As to the kind of experiment: Colorimetric GGT assay in whole cell lysates. To be noted: whole cell lysate, 4 mM substrate, 50 mM Tris-HCl (pH 9.0), 410 nm. The format is biochemical, E. coli. The source says:
(§4) To test for the desired activity a colorimetric enzyme assay was chosen and the substrate sulfobutanoyl-p-nitroanilide was synthesized for this purpose. Hydrolysis of this colorless substrate by a GGT variant into sulfobutanoic acid and the yellow dye 4-nitroaniline can be quantified photometrically at 410 nm. For that, cytoplasmic GGT variants containing an N-terminal 6×His-tag were first expressed from E. coli (EcGGT ΔN24) and Pseudomonas nitroreducens (PnGGT ΔN24), as well as EcGGT ΔN24 D433N and the corresponding mutant variant PnGGT ΔN24 D405N. Position D405 of PnGGT was identified to fulfill the same function as position D433 of EcGGT by sequence alignment and homology modeling between EcGGT and PnGGT. Then the ability of whole cell lysates containing the respective enzymes was tested to hydrolyze L-glutamic acid γ-(3-carboxy-4-nitroanilide) or sulfobutanoyl-p-nitroanilide.

In a further assay the target is T4, EcGGT ΔN24 D433N (Escherichia coli, UniProt P18956, D433N).
T4 construct: made in house; host or cells: E. coli (pACT3 plasmid); assayed in whole cell lysate
As to the kind of experiment: Colorimetric GGT assay in whole cell lysates. The format is biochemical, E. coli. To be noted: whole cell lysate, 4 mM substrate, 50 mM Tris-HCl (pH 9.0), 410 nm.
Description: as §4

The target of assay [3] is T1, PnGGT ΔN24. As to the kind of experiment: Colorimetric GGT assay in whole cell lysates. Type of assay: biochemical. To be noted: whole cell lysate, 4 mM substrate, 50 mM Tris-HCl (pH 9.0), 410 nm.
Description: as §4

The target in assay [4] is T2, PnGGT ΔN24 D405N. Put plainly: Colorimetric GGT assay in whole cell lysates / cell free extracts. The format is biochemical. To be noted: cell free extracts of strain TK018, 2 mM substrate (FIG. 22a). The source says:
FIG. 22: Identification of GGT* activity and refactoring of the ssuABC operon. […] The release of 4-nitroaniline was quantified by measuring the absorption at 410 nm. (b) Plasmid map of the three-dimensional RBS-library for refactoring the ssuABC operon using 144 RBS variants per gene. RBS library sequences are underlined. Arrows point towards the final RBS sequences observed in plasmid pSsuABC. […] (e) Growth of strain TK088[pSsuABC]transformed with the empty vector pACT3 (black circles) or plasmid pPnGGT* (white circles) in liquid MS minimal medium supplemented with 0.5% glucose, 1 mM MgSO4, 0.4 mM L-leucine, 0.5 mM IPTG, 100 ng ml^−1 aTc and 0.5 mM sulfobutanoyl-L-histidine. Bars and dots from panels (a), (d) and (e) represent the average of three independent measurements with standard deviations shown as error bars.
To test for the desired activity a colorimetric enzyme assay was chosen and the substrate sulfobutanoyl-p-nitroanilide was synthesized for this purpose. Hydrolysis of this colorless substrate by a GGT variant into sulfobutanoic acid and the yellow dye 4-nitroaniline can be quantified photometrically at 410 nm. For that, cytoplasmic GGT variants containing an N-terminal 6×His-tag were first expressed from E. coli (EcGGT ΔN24) and Pseudomonas nitroreducens (PnGGT ΔN24), as well as EcGGT ΔN24 D433N and the corresponding mutant variant PnGGT ΔN24 D405N. […]

On to `CC(C)C[C@H](NC(=O)CC[C@H](NC(=O)[C@H](C)N)C(=O)O)C(=O)O` [Ala-γ-Glu-Leu, alanyl-γ-glutamyl-leucine] (HELM PEPTIDE1{A.[gGlu].L}$$$$V2.0), for which the “growth with peptide as sole source of leucine” value is recorded as “poor growth” with TK054 and “grew rapidly” with TK054 ΔpcnB.
In the case of `N[C@@H](CCC(=O)Nc1ccc([N+](=O)[O-])c(C(=O)O)c1)C(=O)O` [γ-Glu-p-nitroanilide, L-glutamic acid γ-(3-carboxy-4-nitroanilide), reference compound], the Km on PnGGT ΔN24 [1] was found to be 0.105 mM; at PnGGT ΔN24 D405N [2], 6.5 mM. Besides, the Vmax on PnGGT ΔN24 [1] is 34.94 ± 0.47 µmol/min/mg; on PnGGT ΔN24 D405N [2], 1.79 ± 0.61 µmol/min/mg. Besides, the kcat at PnGGT ΔN24 [1] came out at 34.5 s⁻¹; at PnGGT ΔN24 D405N [2], 1.8 s⁻¹. Besides, the values for the hydrolysis of substrate result on EcGGT ΔN24, at EcGGT ΔN24 D433N and on PnGGT ΔN24 [3] were “able to hydrolyze”, “still had detectable activity” and “able to hydrolyze”, respectively. Moreover, the “reactivity of PnGGT* to substrate” value on PnGGT ΔN24 D405N [4] is on record as “no longer possesses significant reactivity”.
